The results in this text go back to PubChem BioAssay (NCI).

Among the test systems are ACHN renal; BT-549 breast; LOX IMVI melanoma; MOLT-4 leukemia; NCI-H23 lung; SK-MEL-2 melanoma; UACC-257 melanoma; UO-31 renal; A498 renal; EKVX NSCLC.
Assay in all cases: NCI tumour cell line growth inhibition, 48 h

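Following 48 hours of exposure in 96-well plates, responses at five concentrations were used to interpolate endpoints linearly. GI50 is the concentration that inhibits growth by half. Definition used: TGI = concentration required for complete inhibition of growth.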

`CCC(=O)Nc1ccc2c(c1)CN1C(=O)c3ccccc3C1=N2`: the GI50 in the test on ACHN renal, in the test on BT-549 breast, with LOX IMVI melanoma, with MOLT-4 leukemia, with NCI-H23 lung and in the test with SK-MEL-2 melanoma was > 100 µM each time. Also, the GI50 in the test on UACC-257 melanoma and in the test on UO-31 renal was > 100 µM each time. In addition, the TGI with ACHN renal, with BT-549 breast, with LOX IMVI melanoma, in the test on MOLT-4 leukemia, in the test with NCI-H23 lung and in the test with SK-MEL-2 melanoma was > 100 µM throughout. For the same compound, the TGI in the test with UACC-257 melanoma and in the test on UO-31 renal was > 100 µM throughout.
On to `COc1ccc(C(=O)O)c2c(=O)c3ccccc3[nH]c12`, for which the TGI in the test on A498 renal, in the test with ACHN renal, in the test with EKVX NSCLC, in the test with LOX IMVI melanoma, in the test on MOLT-4 leukemia and with NCI-H23 lung was > 100 µM in each case. For the same compound, the TGI in the test with SK-MEL-2 melanoma, in the test with UACC-257 melanoma and in the test with UO-31 renal was > 100 µM each time.
As for `Cc1ccc(NC(=O)/C(=N/NC(=O)CC#N)C2C(=O)N(c3ccccc3)N=C2N)cc1C` (stereo not given), the TGI in the test on A498 renal, in the test with ACHN renal, in the test with EKVX NSCLC, with LOX IMVI melanoma, in the test on MOLT-4 leukemia and in the test on NCI-H23 lung was > 100 µM in each case. In addition, the TGI in the test on SK-MEL-2 melanoma, in the test on UACC-257 melanoma and with UO-31 renal was > 100 µM in each case.
`COc1ccc(C2c3cc4c(cc3OC(O)(CO)C2C(=O)O)OCO4)c(OC)c1OC` (stereo not given) (tested in a mixture with another compound): the TGI in the test on ACHN renal, in the test on EKVX NSCLC, in the test on LOX IMVI melanoma, in the test on MOLT-4 leukemia, with NCI-H23 lung and with SK-MEL-2 melanoma was > 100 µM throughout. In addition, the TGI in the test with UACC-257 melanoma and with UO-31 renal was > 100 µM in each case.
Turning to `O=C(CCc1ccc(O)c(O)c1)c1ccc(O)c(O)c1O`, the TGI was > 100 µM in the test on A498 renal; 28.4 µM in the test with ACHN renal; 48.4 µM in the test on EKVX NSCLC; > 100 µM in the test with LOX IMVI melanoma; 89.5 µM in the test with MOLT-4 leukemia; 61.3 µM with NCI-H23 lung. Also, the TGI in the test with SK-MEL-2 melanoma, in the test on UACC-257 melanoma and in the test on UO-31 renal was > 100 µM each time.
As to `CC1(C)OC(=O)C=C(O)O1.CC1(C)OC(=O)C=C(O)O1.CCO.Oc1ccc2c(c1)CCC2.[Ti]`, the GI50 in the test with A498 renal, in the test with ACHN renal, in the test with EKVX NSCLC, in the test on LOX IMVI melanoma, in the test on MOLT-4 leukemia and in the test on NCI-H23 lung was > 100 µM in each case. For the same compound, the GI50 with SK-MEL-2 melanoma, in the test with UACC-257 melanoma and with UO-31 renal was > 100 µM each time. In addition, the TGI with A498 renal, with ACHN renal, in the test on EKVX NSCLC, with LOX IMVI melanoma, in the test on MOLT-4 leukemia and with NCI-H23 lung was > 100 µM each time. In addition, the TGI with SK-MEL-2 melanoma, in the test with UACC-257 melanoma and with UO-31 renal was > 100 µM throughout.
As for `NC(=S)N/N=C1\C(=O)N(c2cccc([N+](=O)[O-])c2)C(=O)C1C(=O)Nc1cccc([N+](=O)[O-])c1` (stereo not given), the TGI in the test with A498 renal, with ACHN renal, in the test with EKVX NSCLC, in the test on LOX IMVI melanoma, with MOLT-4 leukemia and in the test on NCI-H23 lung was > 100 µM in each case. Besides, the TGI in the test with SK-MEL-2 melanoma, in the test on UACC-257 melanoma and in the test with UO-31 renal was > 100 µM each time.
In the case of `CCCN1C(=O)/C(=C/c2ccc(O)cc2)SC1=Nc1ccccc1`, the GI50 with ACHN renal was 18.2 µM; in the test with EKVX NSCLC it was 14.5 µM; in the test with LOX IMVI melanoma, 14.7 µM; with MOLT-4 leukemia it was > 100 µM; in the test on NCI-H23 lung it was 34.1 µM; in the test on SK-MEL-2 melanoma it was 51 µM. The GI50 with UACC-257 melanoma is > 100 µM; in the test on UO-31 renal, 38.3 µM. For the same compound, the TGI was 34.9 µM in the test on ACHN renal; 32.1 µM in the test on EKVX NSCLC; 29.3 µM in the test on LOX IMVI melanoma; > 100 µM in the test on MOLT-4 leukemia; 93 µM with NCI-H23 lung; > 100 µM in the test on SK-MEL-2 melanoma. Besides, the TGI in the test with UACC-257 melanoma and with UO-31 renal was > 100 µM in each case.
As for `CCOC(=O)c1ccc(C(O)CC(=O)OC(C)(C)C)[nH]1` (stereo not given), the GI50 in the test with A498 renal was 23.7 µM; in the test with ACHN renal, 41.5 µM; in the test on EKVX NSCLC it was 22.7 µM; with LOX IMVI melanoma, 25.1 µM; in the test on MOLT-4 leukemia it was 17.2 µM; with NCI-H23 lung, 44.4 µM. Moreover, the GI50 is 21.3 µM in the test on SK-MEL-2 melanoma, 40.8 µM with UACC-257 melanoma and 38.5 µM in the test on UO-31 renal. Further, the TGI in the test on A498 renal was > 100 µM; in the test with ACHN renal it was > 100 µM; with EKVX NSCLC, 49.6 µM; with LOX IMVI melanoma it was 86.8 µM; in the test on MOLT-4 leukemia it was > 100 µM; in the test on NCI-H23 lung it was > 100 µM. Also, the TGI with SK-MEL-2 melanoma was 41.3 µM; in the test with UACC-257 melanoma it was > 100 µM; in the test on UO-31 renal, > 100 µM.
For `CC1CC(C)C(=O)C(C(=O)CC2CC(=O)NC2=O)C1` (stereo not given), the TGI with A498 renal, with ACHN renal, with EKVX NSCLC, in the test with LOX IMVI melanoma, with NCI-H23 lung and in the test on UACC-257 melanoma was > 100 µM each time. Also, the TGI in the test with UO-31 renal was > 100 µM.
With `COc1ccc2c(c1)/C(=C/c1c(-c3ccc(C)cc3)nc3sc(C)cn13)C(=O)N2`, the GI50 is 20.2 µM in the test on A498 renal; 9.62 µM in the test on EKVX NSCLC; 6.86 µM in the test with NCI-H23 lung; 14.6 µM in the test with SK-MEL-2 melanoma; 16.8 µM in the test on UACC-257 melanoma; 10.5 µM in the test with UO-31 renal. The TGI in the test on A498 renal was 60.6 µM; in the test on EKVX NSCLC, > 100 µM; in the test on NCI-H23 lung, 32.5 µM; in the test on SK-MEL-2 melanoma it was 47.7 µM; in the test on UACC-257 melanoma, 57.1 µM; in the test on UO-31 renal, > 100 µM.
Turning to `CC(=O)Oc1cc2c(=O)oc3c(OC(C)=O)c(OC(C)=O)c(OC(C)=O)c4c(=O)oc(c1OC(C)=O)c2c34`, the TGI was > 100 µM in the test on A498 renal; > 100 µM in the test on ACHN renal; > 100 µM in the test on EKVX NSCLC; 32.6 µM with LOX IMVI melanoma; > 100 µM in the test with MOLT-4 leukemia; > 100 µM in the test with NCI-H23 lung. Besides, the TGI in the test with SK-MEL-2 melanoma, in the test on UACC-257 melanoma and in the test on UO-31 renal was > 100 µM in each case.
